Results on 12 compounds are retold here after article PMC7412250, “Novel Chrysin-De-Allyl PAC-1 Hybrid Analogues as Anticancer Compounds: Design, Synthesis, and Biological Evaluation” (Molecules, 2020).

One may read the IC50 as the concentration that inhibits the measured activity by half.

Data set [1] has as its system MDA-MB-231 cells. Put plainly: MTT cytotoxicity assay, MDA-MB-231. The format is cell-based, human. The following applies: MDA-MB-231, MTT; for IC50: Homo sapiens, mean ± SD of two independent experiments in triplicate, read-out: IC50 (cell survival). On the procedure:
The synthesized chrysin derivatives were evaluated for cytotoxic efficacy in the human breast cancer cell line, MDA-MB-231, using the 3-(4,5-dimethylthiazol-2yl)-2,5-diphenyltetrazolium bromide (MTT) colorimetric assay and doxorubicin was used as a reference anticancer drug.
(§1) A panel of cancer cell lines, including breast (MDA-MB-231, BT20), brain (U251), and colon (HCT116), as well as a normal cell line (human mammary epithelial cells: HMECs), were grown as adherent monolayers in flasks with Dulbecco’s Modified Eagle Medium (DMEM), supplemented with 10% fetal bovine serum (FBS) and 1% penicillin and streptomycin in a humidified incubator with 5% CO2 at 37 °C.
The (3-(4,5-dimethylthiazol-2-yl)-2,5-diphenyltetrazolium bromide) (MTT) assay was used to determine the cytotoxicity of the 15 chrysin derivatives in the above-mentioned cell lines. Briefly, cells were harvested with 0.05% trypsin, 2.21 mM ethylenediaminetetraacetic acid (EDTA), 1× from Corning (Corning, NY, USA), and suspended at a final density of 5 × 10^3 cells/well. Cells were seeded (180 μL/well) into 96-well plates. Initially, four different concentrations of each compound were added to find the compounds with the greatest antiproliferative efficacy in the MDA-MB-231 cell line (0, 1, 10, and 100 μM). Subsequently, […] different concentrations […] of each compound were added to the remaining cell lines mentioned above. After 68 h of incubation, 20 μL of the MTT solution (4 mg/mL) were added to each well, and the plates were incubated for 4 h. This allowed viable cells to biotransform the yellow-colored MTT into dark-blue formazan crystals. Subsequently, the medium was discarded, and 150 μL of DMSO were added to each well to dissolve the formazan crystals. The absorbance was determined at 590 nm using a DTX 880 multimode detector (Beckman Coulter life sciences, IN, USA). […] The IC50 values were calculated from the cell survival percentages obtained for each compound tested at different concentrations. Similarly, the cytotoxicity of the test compounds was compared to the normal cell line (HMEC).
For orientation: Tetrazolium dyes change colour on reduction, which living cells bring about.

The subject of data set [2] is MDA-MB-231 cells. Further details: method as in PMID 30774307. The following applies: cited from earlier work; for IC50: MDA-MB-231, MTT, data taken from ref 29, read-out: IC50 (cell survival).
Data set [3] has as its system BT-20. In words: MTT cytotoxicity assay, BT-20. The format is cell-based. The following applies: Homo sapiens, mean ± SEM of three independent experiments in triplicate, read-out: IC50 Breast Cancer BT-20. As for the experimental part: as §1
(§2) The (3-(4,5-dimethylthiazol-2-yl)-2,5-diphenyltetrazolium bromide) (MTT) assay was used to determine the cytotoxicity of the 15 chrysin derivatives in the above-mentioned cell lines. Briefly, cells were harvested with 0.05% trypsin, 2.21 mM ethylenediaminetetraacetic acid (EDTA), 1× from Corning (Corning, NY, USA), and suspended at a final density of 5 × 10^3 cells/well. Cells were seeded (180 μL/well) into 96-well plates. Initially, four different concentrations of each compound were added to find the compounds with the greatest antiproliferative efficacy in the MDA-MB-231 cell line (0, 1, 10, and 100 μM). Subsequently, […] different concentrations […] of each compound were added to the remaining cell lines mentioned above. After 68 h of incubation, 20 μL of the MTT solution (4 mg/mL) were added to each well, and the plates were incubated for 4 h. This allowed viable cells to biotransform the yellow-colored MTT into dark-blue formazan crystals. Subsequently, the medium was discarded, and 150 μL of DMSO were added to each well to dissolve the formazan crystals. The absorbance was determined at 590 nm using a DTX 880 multimode detector (Beckman Coulter life sciences, IN, USA). The IC50 ± SD concentrations were calculated from three experiments performed in triplicate/duplicate. The IC50 values were calculated from the cell survival percentages obtained for each compound tested at different concentrations. Similarly, the cytotoxicity of the test compounds was compared to the normal cell line (HMEC).

In data set [4] the test system is HCT116. In words: MTT cytotoxicity assay, HCT116. The conditions noted are these: Homo sapiens, HCT-116, mean ± SEM of three independent experiments in triplicate, read-out: IC50 Colon Cancer HCT116. The data set is classed as cell-based. As for the experimental part:
as §1, §2

Data set [5] concerns U-251. Put plainly: MTT cytotoxicity assay, U-251. The following applies: Homo sapiens, mean ± SEM of three independent experiments in triplicate, read-out: IC50 Brain Cancer U-251. The data set is classed as cell-based. As for the experimental part: as §1, §2
For data set [6], the system named is HMEC (human mammary epithelial cells). Put plainly: MTT cytotoxicity assay, normal cells HMEC. The data set is classed as cell-based. The conditions noted are these: mean ± SEM of three independent experiments in triplicate. As for the experimental part:
as §1, §2

Like-named read-outs stand apart in the source and are kept apart here.

Turning to `O=C(COc1cc(O)c2c(=O)cc(-c3ccccc3)oc2c1)N/N=C/c1ccco1` [Compound 4k, (E,Z)-N’-(Furan-2-ylmethylene)-2-((5-hydroxy-4-oxo-2-phenyl-4H-chromen-7-yl)oxy)acetohydrazide], in data set [1], the IC50 stood at 66.7 ± 11.1 µM and the “cytotoxic efficacy (in words)” value is “did not have significant cytotoxic efficacy”.

Turning to `COc1ccccc1/C=N/NC(=O)COc1cc(O)c2c(=O)cc(-c3ccccc3)oc2c1` [Compound 4c, (E,Z)-2-((5-Hydroxy-4-oxo-2-phenyl-4H-chromen-7-yl)oxy)-N’-(2-methoxybenzylidene)acetohydrazide], the IC50 in data set [1] amounted to 23.3 ± 6.98 µM.

As for `O=C(COc1cc(O)c2c(=O)cc(-c3ccccc3)oc2c1)N/N=C/c1ccc(O)cc1` [Compound 4e, (E,Z)-2-((5-Hydroxy-4-oxo-2-phenyl-4H-chromen-7-yl)oxy)-N’-(4-hydroxybenzylidene)acetohydrazide], the IC50 in data set [2] was 54.8 ± 5.7 µM.

Take `O=C(COc1cc(O)c2c(=O)cc(-c3ccccc3)oc2c1)N/N=C/c1c(O)ccc2ccccc12` [Compound 4n, (E,Z)-2-((5-Hydroxy-4-oxo-2-phenyl-4H-chromen-7-yl)oxy)-N’-((2-hydroxynaphthalen-1-yl)methylene)acetohydrazide]: in data set [1], the “cytotoxic efficacy (in words)” value is “inactive”.

With `O=C(COc1cc(O)c2c(=O)cc(-c3ccccc3)oc2c1)N/N=C/c1cc([N+](=O)[O-])ccc1O` [Compound 4o], the IC50 in data set [3] was 7.25 ± 1.82 µM; in data set [4], 3.85 ± 0.34 µM; in data set [1], 7.9 ± 1.82 µM; in data set [5] it was 11.3 ± 2.84 µM; in data set [6] it was 7.17 ± 4.1 µM.

Turning to `O=C(COc1cc(O)c2c(=O)cc(-c3ccccc3)oc2c1)N/N=C/c1c(O)cc(O)cc1O` [Compound 4j, (E,Z)-2-((5-Hydroxy-4-oxo-2-phenyl-4H-chromen-7-yl)oxy)-N’-(2,4,6-trihydroxybenzylidene)acetohydrazide], in data set [1], the “cytotoxic efficacy (in words)” value was “totally inactive”.

In the case of `O=C(COc1cc(O)c2c(=O)cc(-c3ccccc3)oc2c1)N/N=C/c1cccnc1` [Compound 4l, (E,Z)-2-((5-Hydroxy-4-oxo-2-phenyl-4H-chromen-7-yl)oxy)-N’-(pyridin-3-ylmethylene)acetohydrazide], the “cytotoxic efficacy (in words)” value in data set [1] is recorded as “did not have significant cytotoxic efficacy”.

Turning to `COc1cccc2c1C(=O)c1c(O)c3c(c(O)c1C2=O)C[C@@](O)(C(=O)CO)C[C@@H]3O[C@H]1C[C@H](N)[C@H](O)[C@H](C)O1` [Doxorubicin, reference compound], the IC50 in data set [1] was determined as 0.2 ± 0.1 µM.

Regarding `COc1ccc(/C=N/NC(=O)COc2cc(O)c3c(=O)cc(-c4ccccc4)oc3c2)cc1` [Compound 4f, (E,Z)-2-((5-Hydroxy-4-oxo-2-phenyl-4H-chromen-7-yl)oxy)-N’-(4-methoxybenzylidene)acetohydrazide], the IC50 in data set [2] is 11.9 ± 3.5 µM. In addition, the “times more efficacious than 4e” value in data set [2] (MDA-MB-231 cytotoxic efficacy relative to 4e) is listed as ~ 5 times.

In the case of `O=C(COc1cc(O)c2c(=O)cc(-c3ccccc3)oc2c1)N/N=C/c1ccccc1O` [Compound 4a, (E,Z)-2-((5-Hydroxy-4-oxo-2-phenyl-4H-chromen-7-yl)oxy)-N’-(2-hydroxybenzylidene)acetohydrazide], the IC50 in data set [3] amounted to 4.41 ± 0.99 µM; in data set [4], 2.88 ± 0.09 µM; in data set [1] it was 6.8 ± 2.76 µM; in data set [5], 8.63 ± 4.86 µM; in data set [6] it was 7.12 ± 4.55 µM.

For `O=C(COc1cc(O)c2c(=O)cc(-c3ccccc3)oc2c1)N/N=C/c1ccccc1` [Compound 4b, (E,Z)-N’-Benzylidene-2-((5-hydroxy-4-oxo-2-phenyl-4H-chromen-7-yl)oxy)acetohydrazide], the IC50 in data set [1] was 9.4 ± 3.38 µM.

With `O=C(COc1cc(O)c2c(=O)cc(-c3ccccc3)oc2c1)N/N=C/c1ccccn1` [Compound 4m, (E,Z)-2-((5-Hydroxy-4-oxo-2-phenyl-4H-chromen-7-yl)oxy)-N’-(pyridin-2-ylmethylene)acetohydrazide], in data set [1], the “cytotoxic efficacy (in words)” value is “did not have significant cytotoxic efficacy”.
